The text below walks through data of patent US5149702A, “Cycloheptenopyridine derivatives, process for preparation thereof and antiulcer agents containing the same” (Toa Eiyo Ltd., priority 1990, dated 1992).

Counter-ions that a name gives are not always drawn.

In one experiment the test system is gastric acid secretion. In words: Inhibitory Effect on Gastric Acid Secretion in Ghosh-Schild Rats. As to conditions: 180 minutes after administration. It is filed as in vivo, rat (male Wistar-KV). How it is done: (a) Inhibitory Effect on Gastric Acid Secretion in Ghosh-Schild Rats Each of male Wistar-KV rats was fasted for 24 hours, and a trachea cannula was set up under urethane anesthesia. The abdomen was incised, a double cannula was set up at the forestomach, and then the abdomen was closed. The gastric acid secretion was stimulated by intravenous infusion of […]. Physiological saline was perfused into the stomach through the double cannula at a rate of 1 ml/min., and the effluent was collected every 10 minutes. The acidity of the effluent was measured, using an automatic titrator, by titrating the effluent with 1/100N sodium hydroxide to pH 7. When the acid secretion had reached a stable plateau, the test drug was intravenously administered, and the gastric acid secretion was measured 3 hours after the test drug administration. The antisecretory effect was expressed as percentages of the secretory amount before administration of the test compound. Inhibition percentages at 180 minutes after the administrations are shown.

Experiment [1] deals with gastric lesion induced by ethanol. In words: Inhibitory Effect on Formation of Gastric Lesion Induced by Ethanol. It is filed as in vivo, rat (male Wistar). The note with it: P.O., 30 minutes before 1 ml of 99.5% ethanol orally, lesions 1 hour after ethanol. How it is done:
(b) Inhibitory Effect on Formation of Gastric Lesion Induced by Ethanol
Male Wistar rats weighing 170 to 270 g were used. Each of the rats was placed in separate cages to deprive of food but allowed free access to water for 4 hours. Test drugs or the control drug were orally administered respectively in amounts of 3, 10 and 30 mg/kg, and 30 minutes thereafter 1 ml of 99.5% ethanol were orally administered respectively. One hour after the ethanol administration the rats were sacrificed by cervical vertebrae dislocation, and the stomachs were removed with 8 ml of 1% formalin and put into 1% formalin for 30 minutes to fix the gastric wall. After the fixing, each stomach was opened along the greater curvature, and then after the mucosal surface was washed with tap water, the total length lesions generated at the glandub portion was determined as an ulcer index.
The antiulcer effect by the test drug was expressed by the ED50 value (the dose of the test compound to inhibit the ulcer by 50% to the ulcer index of the non-treated group). Only the solvent was administered to the non-treated group.

With `COc1ccc2[nH]c([S+]([O-])C3CCCCc4c(OC)ccnc43)nc2c1` (centres unmarked) [Example 63, 9-(5-Methoxybenzimidazole-2-yl)sulfinyl-4-methoxy-2,3-cycloheptenopyridine], in the experiment on gastric acid secretion, the “Inhibiting action of gastric acid secretion (rat i.v.), 1 mg/kg” value (“Inhibiting action … 1 mg/kg” below) amounted to 45.7% and the “Inhibiting action of gastric acid secretion (rat i.v.), 3 mg/kg” value (“Inhibiting action … 3 mg/kg” below) is on record as 73.8%.

As to `COc1ccnc2c1CCCCC2[S+]([O-])c1nc2ccccc2[nH]1` (centres unmarked) [Example 68, 9-(Benzimidazole-2-yl)sulfinyl-4-methoxy-2,3-cycloheptenopyridine sodium salt], the “Inhibiting action … 1 mg/kg” value with gastric acid secretion (sodium salt) came out at 54.9%. The “ED50 value (dose of the test compound to inhibit the ulcer by 50% to the ulcer index of the non-treated group)” value in experiment [1] (rat, sodium salt) stood at 10.9 mg/kg.

For the compound `Cc1ccc2[nH]c([S+]([O-])C3CCCCc4cccnc43)nc2c1` (centres unmarked) [Example 75, 9-(5-Methylbenzimidazole-2-yl)sulfinyl-2,3-cycloheptenopyridine], in the experiment on gastric acid secretion, the “Inhibiting action … 3 mg/kg” value is 42.1%.

`COc1ccnc2c1CCCCC2[S+]([O-])c1nc2ccccc2[nH]1` (centres unmarked) [Example 77, 9-(Benzimidazole-2-yl)sulfinyl-4-methoxy-2,3-cycloheptenopyridine]: in the experiment on gastric acid secretion, the “Inhibiting action … 1 mg/kg” value was 44.7% and the “Inhibiting action … 3 mg/kg” value was determined as 74.7%. Moreover, in experiment [1] (Rattus norvegicus, po, read-out: ED50 value (dose of the test compound to inhibit the ulcer by 50% to the ulcer index of the non-treated group)), the ED50 was determined as 13 mg/kg.

On to `COc1ccnc2c1CCCCC2[S+]([O-])c1nc2cc(F)ccc2[nH]1` (centres unmarked) [Example 78, 9-(5-Fluorobenzimidazole-2-yl)sulfinyl-4-methoxy-2,3-cycloheptenopyridine], for which, in the experiment with gastric acid secretion, the “Inhibiting action … 1 mg/kg” value is listed as 65.4% and the “Inhibiting action … 3 mg/kg” value is on record as 82.9%.

Turning to `COCCOc1ccnc2c1CCCCC2[S+]([O-])c1nc2ccccc2[nH]1` (centres unmarked) [Example 96, 9-(Benzimidazole-2-yl)sulfinyl-4-(2-methoxyethoxy)-2,3-cycloheptenopyridine], in the experiment on gastric acid secretion, the “Inhibiting action … 1 mg/kg” value is 38.6% and the “Inhibiting action … 3 mg/kg” value stood at 57.4%.

`COc1c(C)cnc2c1CCCCC2[S+]([O-])c1nc2ccccc2[nH]1` (centres unmarked) [Example 109, 9-(Benzimidazole-2-yl)sulfinyl-4-methoxy-3-methyl-2,3-cycloheptenopyridine]: in the experiment with gastric acid secretion, the “Inhibiting action … 3 mg/kg” value is 77.6%.

Take `COc1ccc2[nH]c([S+]([O-])Cc3ncc(C)c(OC)c3C)nc2c1` (centres unmarked) [Omeprazole, reference compound]: in the experiment with gastric acid secretion, the “Inhibiting action … 1 mg/kg” value is recorded as 36.9%.

What is called ED50 is the dose at which the effect has come halfway, by size or by number of responders.
